How the values were obtained:
[1] = tested on: immature CE (cornified envelope) in stratum corneum; experiment: CE Maturation Promoting Test, incubation varied to 37° C. and 100% relative humidity for a day; set-up: species or system human
Method: (§1) Stratum corneum containing many immature CE's were taken from the subjects suffering from skin troubles such as chapping, by means of tape stripping. To the stratum corneum still adhering to the tapes, a test solution was applied, followed by 4 days' incubation under the conditions of 30° C. in temperature and 70% in humidity. After end of the incubation, a tris-hydrochloric acid buffer solution containing dithiothreitol and sodium dodecylsulfate was added, followed by 10 minutes' heating at 100° C. The insoluble matter was collected by centrifuge at 4000 g for 10 minutes. Addition of the eluate and heating cycle was further repeated to thoroughly remove the soluble component. Thus obtained insoluble matter was used as CE.
Properties of each CE thus isolated were evaluated by the following method: CE was spotted on a piece of slide glass, air-dried and fixed in cold acetone. Hydrating the same with Dulbecco's phosphate buffered saline, it was reacted with mouse anti-human involucrin antibody (NOVOCASTRA Co.) as the primary antibody. Excessive antibody was removed by washing and the residue was reacted with FITC-labeled rabbit anti-mouse immunoglobulin antibody as the secondary antibody. Excessive antibody was removed by washing, and the residue was reacted with Nile Red dye solution, sealed and observed with a fluorescence microscope. The observed images were taken into computer via CCD camera, and the ratio of involucrin positive immature CE and that of Nile Red-positive mature CE were evaluated using an image analysis software (Win Roof) or the like.
Procedures similar to Example 1 were repeated, except that the incubation conditions were varied to 37° C. and 100% (relative humidity) for a day.

[2] = tested on: immature CE (cornified envelope) in stratum corneum; experiment: CE Maturation Promoting Test (tape-stripped stratum corneum, 4 days' incubation at 30° C., 70% humidity); set-up: species or system human; conditions: test solution applied to tape-stripped stratum corneum, involucrin/Nile Red staining, mean of N = 3, water control 11.7
Method: as §1
Properties of each CE thus isolated were evaluated by the following method: CE was spotted on a piece of slide glass, air-dried and fixed in cold acetone. […] Excessive antibody was removed by washing, and the residue was reacted with Nile Red dye solution, sealed and observed with a fluorescence microscope. The observed images were taken into computer via CCD camera, and the ratio of involucrin positive immature CE and that of Nile Red-positive mature CE were evaluated using an image analysis software (Win Roof) or the like.

[3] = Table 3, one day, mean of N = 3, before treatment 28.3, 0.1 M MES buffer pH5.5 control 3.0
[4] = Table 2, one day, mean of N = 3, water control 36.9

SMILES | Ratio of Immature CE (%) [1, 3] [%] | Ratio of Immature CE (%) [1, 4] [%] | Ratio of Immature CE (%) [2] [%]
O[C@H](CS)[C@H](O)CS (racemic) [10 mM dithiothreitol, dithiothreitol] | 0.33 |  | 
[Ca+2].[Cl-].[Cl-] [1 mM calcium chloride, calcium chloride] | 1.83 |  | 
OCC(O)CO [10% glycerin, glycerin] |  | 14.6 | 6.3
C[N+](C)(C)CC(=O)O [10% trimethyl glycine, trimethyl glycine] |  | 9.3 | 

From US20040115150A1, “Cosmetics and treatment method for promoting maturation of cornified envelopes” (priority 2001, published 2004)
